In PubChem BioAssay AID1259411 (Chemical Carcinogenesis Research Information System (CCRIS), 2018) one finds carcinogen call data, which are given here for three molecules.

The structures appear in SMILES notation. Active and inactive are the calls of the source. No rule for the calls is given here.

The data set deals with rodent carcinogenicity bioassays, tumor incidence. The data set is described as follows: CCRIS carcinogenicity studies. As to conditions: Dose: 0. The procedure, abridged:
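NCI-built, expert-reviewed records of carcinogenicity and related test outcomes (mutagenicity, tumor promotion/inhibition) compiled from published and report sources, historical span 1985-2011, not updated.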

As to `ClC#CCl`, the carcinogen call reads like this: (Species: MOUSE, Strain/Sex: NMRI/FEMALE, Route: INHALATION, 2 PPM 6 HR/D 1 D/WK FOR 18 MO (STUDY DURATION: LIFE), Tumor Site: Type of Lesion: KIDNEY: CYSTADENOMA, LUNG: ADENOMA, HARDERIAN GLAND: CYSTADENOMA, Tumor Site: Type of Lesion: KIDNEY: CYSTADENOMA, LUNG: ADENOMA, HARDERIAN GLAND: CYSTADENOMA) “active; positive”; (Species: MOUSE, Strain/Sex: NMRI/FEMALE, Route: INHALATION, 2 PPM 6 HR/D 2 D/WK FOR 18 MO (STUDY DURATION: LIFE), Tumor Site: Type of Lesion: HARDERIAN GLAND: CYSTADENOMA) “active; positive”; (Species: MOUSE, Strain/Sex: NMRI/FEMALE, Route: INHALATION, 9 PPM 6 HR/D 1 D/WK FOR 12 MO (STUDY DURATION: LIFE), Tumor Site: Type of Lesion: KIDNEY: CYSTADENOMA, HARDERIAN GLAND: CYSTADENOMA) “active; positive”; (Species: MOUSE, Strain/Sex: NMRI/MALE, Route: INHALATION, 2 PPM 6 HR/D 1 D/WK FOR 18 MO (STUDY DURATION: LIFE), Tumor Site: Type of Lesion: KIDNEY: CYSTADENOMA, CYSTADENOCARCINOMA, HARDERIAN GLAND: CYSTADENOMA) “active; positive”; (Species: MOUSE, Strain/Sex: NMRI/MALE, Route: INHALATION, 2 PPM 6 HR/D 2 D/WK FOR 18 MO (STUDY DURATION: LIFE), Tumor Site: Type of Lesion: KIDNEY: CYSTADENOMA, HARDERIAN GLAND: CYSTADENOMA) “active; positive”; (Species: MOUSE, Strain/Sex: NMRI/MALE, Route: INHALATION, 9 PPM 6 HR/D 1 D/WK FOR 12 MO (STUDY DURATION: LIFE), Tumor Site: Type of Lesion: KIDNEY: CYSTADENOMA, CYSTADENOCARCINOMA) “active; positive”. The carcinogen call by setting is: (Species: RAT, Strain/Sex: WISTAR/FEMALE, Route: INHALATION, 14 PPM 6 HR/D 2 D/WK FOR 18 MO (STUDY DURATION: LIFE), Tumor Site: Type of Lesion: KIDNEY: CYSTADENOMA, LIVER: CHOLANGIOMA, HEMOPOIETIC SYSTEM: MALIGNANT LYMPHOMA, Tumor Site: Type of Lesion: KIDNEY: CYSTADENOMA, LIVER: CHOLANGIOMA, HEMOPOIETIC SYSTEM: MALIGNANT LYMPHOMA) “active; positive”; (Species: RAT, Strain/Sex: WISTAR/MALE, Route: INHALATION, 14 PPM 6 HR/D 2 D/WK FOR 18 MO (STUDY DURATION: LIFE), Tumor Site: Type of Lesion: KIDNEY: CYSTADENOMA, LIVER: CHOLANGIOMA) “active; positive”.

For the molecule `Cc1c(N)cccc1N`, the carcinogen call was “inactive; negative” (Species: MOUSE, Strain/Sex: B6C3F1/FEMALE, Route: ORAL, 50, 100 PPM IN DIET, 50, 100 PPM IN DIET); “inactive; negative” (Species: MOUSE, Strain/Sex: B6C3F1/MALE, Route: ORAL, 50, 100 PPM IN DIET, 50, 100 PPM IN DIET); “inactive; negative” (Species: RAT, Strain/Sex: F344/FEMALE, Route: ORAL, 250, 500 PPM IN DIET, 250, 500 PPM IN DIET); “inactive; negative” (Species: RAT, Strain/Sex: F344/MALE, Route: ORAL, 250, 500 PPM IN DIET, 250, 500 PPM IN DIET).

As for `C[C@@H]1CCC[C@H](C)N1CCC[C@@](O)(c1ccccc1)c1ccccn1`, the carcinogen call is, setting by setting: (Species: MOUSE, Strain/Sex: B6C3F1/FEMALE, Route: ORAL, 10, 25, 50 MG/KG/D IN DIET FOR 104 WK (STUDY DURATION: 104 WK), 10, 25, 50 MG/KG/D IN DIET FOR 104 WK (STUDY DURATION: 104 WK)) “inactive; negative”; (Species: MOUSE, Strain/Sex: B6C3F1/MALE, Route: ORAL, 10, 25, 50 MG/KG/D IN DIET FOR 104 WK (STUDY DURATION: 104 WK), 10, 25, 50 MG/KG/D IN DIET FOR 104 WK (STUDY DURATION: 104 WK)) “inactive; negative”; (Species: RAT, Strain/Sex: WISTAR/FEMALE, Route: ORAL, 10, 25, 50 MG/KG/D IN DIET FOR 104 WK (STUDY DURATION: 104 WK), 10, 25, 50 MG/KG/D IN DIET FOR 104 WK (STUDY DURATION: 104 WK)) “inactive; negative”; (Species: RAT, Strain/Sex: WISTAR/MALE, Route: ORAL, 10, 25, 50 MG/KG/D IN DIET FOR 104 WK (STUDY DURATION: 104 WK), 10, 25, 50 MG/KG/D IN DIET FOR 104 WK (STUDY DURATION: 104 WK)) “inactive; negative”.
